These results are taken from US10744128B2, “6-(5-membered heteroaryl)isoquinolin-3-yl-(5-membered heteroaryl) carboxamides and preparation and use thereof” (Samumed, LLC, priority 2017, dated 2020).

One assay concerns the target recombinant GSK3β kinase (Homo sapiens (Human), UniProt P49841). Nature of the assay: GSK3β kinase assay (Ser/Thr 09 peptide Z-lyte, FRET). The assay is classed as biochemical.
Assay [1] relates to Wnt-responsive promoter (Sp5-Luc reporter) in SW480 colon carcinoma cells. Nature of the assay: Sp5-Luc reporter gene screening assay for Wnt activity in SW480 cells. The format is cell-based, human. The settings on record: Homo sapiens, 36 to 48 hours, luminescence. From the text: The screening assay for Wnt activity is described as follows. Reporter cell lines can be generated by stably transducing cancer cell lines (e.g., colon cancer) or primary cells (e.g., IEC-6 intestinal cells) with a lentiviral construct that includes a Wnt-responsive promoter driving expression of the firefly luciferase gene.
SW480 colon carcinoma cells were transduced with a lentiviral vector expressing luciferase with a human Sp5 promoter consisting of a sequence of eight TCF/LEF binding sites. SW480 cells stably expressing the Sp5-Luc reporter gene and a hygromycin resistance gene were selected by treatment with 150 μg/mL of hygromycin for 7 days. These stably transduced SW480 cells were expanded in cell culture and used for all further screening activities. […] For Sp5-Luc reporter gene assays, the cells were plated at 4,000 cells/well in 384-well plates with a DMEM medium containing 1% fetal bovine serum, and 1% Penicillin-Streptomycin and incubated for 36 to 48 hours at 37° C. and 5% CO2. Following incubation, 15 μl of BriteLite Plus luminescence reagent (Perkin Elmer) was added to each well of the 384-well assay plates. The plates were placed on an orbital shaker for 2 min and then luminescence was quantified using the Envision (Perkin Elmer) plate reader. Readings were normalized to DMSO only treated cells, and normalized activities were utilized for EC50 calculations using the dose-response log (inhibitor) vs. response −variable slope (four parameters) nonlinear regression feature available in GraphPad Prism 5.0 (or Dotmatics).

The next assay has as its system IL-6. Nature of the assay: IL-6 inhibition in LPS-stimulated human peripheral blood mononuclear cells (HTRF). The settings on record: Homo sapiens, PBMC; for EC50: huPBMCs, LPS 50 ng/mL, 22 hours, IL-6 HTRF; for inhibition at 10 µM: read-out: percent inhibition at 10 μM. The format is cell-based. The protocol:
Fresh Normal PB MNC (Catalog # PB001, AllCells, Alameda, Calif.) were shipped overnight at 4° C. and resuspended in Roswell Park Memorial Institute (RPMI) 1640 Medium, with GlutaMAX Supplement (Catalog #61870127, ThermoFisher Scientific, Waltham, Mass.) supplemented with 1% Penicillin-Streptomycin (Catalog #15140163, ThermoFisher Scientific, Waltham, Mass.) and 1% fetal bovine serum (FBS) (Catalog #16140089, ThermoFisher Scientific, Waltham, Mass.) assay media.
Fresh normal human peripheral blood mononuclear cells (huPBMCs) were resuspended in 1% FBS-RPMI assay media with 1% Penicillin-Streptomycin 1% to a cell concentration of 1×10e6 cells/mL. […] 50 ng/mL of Lipopolysaccharides from Escherichia coli 0111:B4 (Catalog #L5293-2ML, Sigma-Aldrich, St. Louis, Mo.) was added after 2 hours and cells were incubated for another 22 hours at 37° C.-5% CO2. After 22 hour incubation, a mixture of anti-IL6 XL665 and anti-IL-6 Cryptate diluted in reconstitution buffer (Catalog #62IL6PEC, Cisbio Inc., Bedford, Mass.) was added to each well. Following incubation for 3 hours at room temperature, Homogeneous Time-Resolved Fluorescence (HTRF) was measured using the Envision (Perkin Elmer, Shelton, Conn.) at 665 nm and […]. The ratio of fluorescence at 665 nm to 620 nm was used as a readout for IL-6 quantification. All samples were processed in duplicate. Readings were normalized to DMSO treated cells and normalized activities were utilized for EC50 calculations. EC50 was determined using software generated by Dotmatics Limited (Windhill Bishops Stortford Herts, UK) using the Levenberg-Marquardt 4 parameter fitting procedure with finite different gradients.
(In general: Time-resolved FRET reads energy transfer from a long-lived donor to a nearby acceptor.)

Assay [2] addresses recombinant DYRK1A kinase (Homo sapiens (Human), UniProt Q13627). Nature of the assay: DYRK1A kinase assay (Ser/Thr 18 peptide Z-lyte, FRET).
Assay [3] concerns SW480 colon carcinoma cells. Nature of the assay: Cell viability assay (CellTiter-Glo) in SW480 cells. The assay is classed as cell-based, human. The settings on record: Homo sapiens, 96 h, four days. The protocol:
SW480 colon carcinoma cells were transduced with a lentiviral vector expressing luciferase with a human Sp5 promoter consisting of a sequence of eight TCF/LEF binding sites. SW480 cells stably expressing the Sp5-Luc reporter gene and a hygromycin resistance gene were selected by treatment with 150 µg/mL of hygromycin for 7 days. These stably transduced SW480 cells were expanded in cell culture and used for all further screening activities.
For the Cell Viability Assays, the cells were plated at 2,000 cells/well in 384-well plates with a DMEM medium containing 1% fetal bovine serum, and 1% Penicillin-Streptomycin and incubated for […] at 37° C. and 5% CO2. Eight replicates of DMSO-treated cells served as controls and cells treated with compound were performed in duplicate.
After incubation, 10 μL of CellTiter-Glo (Promega) was added to each well allowed to incubate for approximately 12 minutes. This reagent “results in cell lysis and generation of a luminescent signal proportional to the amount of ATP present. The amount of ATP is directly proportional to the number of cells present in culture, in agreement with previous reports. The CellTiter-Glo® Assay generates a “glow-type” luminescent signal, produced by the luciferase reaction (Promega.com)”.

The subject of assay [4] is primary human fibroblasts derived from IPF patients (LL29 cells), α-smooth muscle actin. Nature of the assay: Inhibition of fibrotic process: αSMA in TGF-β1 treated LL29 fibroblasts. The format is cell-based. The settings on record: Homo sapiens, Fibroblast; for EC50: 96 h, LL29 cells, TGF-β1 20 ng/mL, 4 days, % cells positive for αSMA; for inhibition at 10 µM: read-out: percent inhibition at 10 μM. The protocol:
Representative compounds were screened using primary human fibroblasts (derived from IPF patients) treated with TGF-β1 to determine their ability to inhibit the fibrotic process.
LL29 cells were plated at 1,500 cells/well in 70 μL/well F12 medium supplemented with 1% Fetal Bovine Serum. […] Wells treated with TGF-β1 and containing DMSO were used as positive control, and cells with only DMSO were negative control. […] Following incubation for 4 days, SYTOX green nucleic acid stain (Life Technologies [Thermo Fisher Scientific]) was added to the wells at a final concentration of 1 μM and incubated at room temperature for 30 min.

The mark [5] stands for this setting: GSK3β kinase, 46 μM ATP, one hour, method calls values IC50.
[6] abbreviates: DYRK1A kinase, 30 μM ATP, one hour, method calls values IC50.

Read-outs that look alike come from different tables or passages of the source. Bounds are passed on as bounds.

Sequence of recombinant GSK3β kinase (P49841 whole entry): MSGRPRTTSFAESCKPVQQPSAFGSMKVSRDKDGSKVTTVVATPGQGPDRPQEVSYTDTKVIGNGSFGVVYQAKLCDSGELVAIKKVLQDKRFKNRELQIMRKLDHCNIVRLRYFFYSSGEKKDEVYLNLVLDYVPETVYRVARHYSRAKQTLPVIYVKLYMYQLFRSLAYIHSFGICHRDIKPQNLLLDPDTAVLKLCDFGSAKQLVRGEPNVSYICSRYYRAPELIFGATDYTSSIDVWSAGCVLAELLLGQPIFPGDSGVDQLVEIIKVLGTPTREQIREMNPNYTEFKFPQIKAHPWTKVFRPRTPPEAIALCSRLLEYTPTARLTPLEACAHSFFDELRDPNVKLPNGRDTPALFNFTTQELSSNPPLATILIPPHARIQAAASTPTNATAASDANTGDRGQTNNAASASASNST

With `CCN1CCC(n2cc(C(=O)Nc3cc4cc(-c5cn(C)nn5)ccc4cn3)cn2)CC1` [Compound 31, 1-(1-Ethylpiperidin-4-yl)-N-(6-(1-methyl-1H-1,2,3-triazol-4-yl)isoquinolin-3-yl)-1H-pyrazole-4-carboxamide], the half-maximal effective concentration (EC50) on recombinant GSK3β kinase (setting [5]) is 286 nM; in assay [1] it was 21 nM; in the assay on IL-6 it was 688 nM; in assay [2] (setting [6]), 3 nM; in assay [3], 39 nM; in assay [4], 298 nM.

As to `CC(C)N1CCC(n2cc(C(=O)Nc3cc4cc(-c5cn(C)nn5)ccc4cn3)cn2)CC1` [Compound 32, 1-(1-Isopropylpiperidin-4-yl)-N-(6-(1-methyl-1H-1,2,3-triazol-4-yl)isoquinolin-3-yl)-1H-pyrazole-4-carboxamide], the EC50 on recombinant GSK3β kinase (setting [5]) worked out at 349 nM; in assay [1], 33 nM; with IL-6, 437 nM; in assay [2] (setting [6]), 3 nM; in assay [3] it was 44 nM; in assay [4] it was 203 nM.

Take `Cn1cc(-c2ccc3cnc(NC(=O)c4cn(C5CCNCC5)nn4)cc3c2)nn1` [Compound 33, N-(6-(1-Methyl-1H-1,2,3-triazol-4-yl)isoquinolin-3-yl)-1-(piperidin-4-yl)-1H-1,2,3-triazole-4-carboxamide]: the half-maximal effective concentration (EC50) at recombinant GSK3β kinase (setting [5]) came out at 316 nM; in assay [1], 71 nM; in the assay on IL-6 it was 852 nM; in assay [2] (setting [6]) it was 7 nM; in assay [3], 257 nM; in assay [4], 562 nM.

As for `Cn1cc(-c2ccc3cnc(NC(=O)c4cn(C5CCN(CCF)CC5)nn4)cc3c2)nn1` [Compound 34, 1-(1-(2-Fluoroethyl)piperidin-4-yl)-N-(6-(1-methyl-1H-1,2,3-triazol-4-yl)isoquinolin-3-yl)-1H-1,2,3-triazole-4-carboxamide], the concentration for a half-maximal effect (EC50) at recombinant GSK3β kinase (setting [5]) came out at 395 nM; in assay [1], 230 nM; with IL-6, 1100 nM; in assay [2] (setting [6]) it was 6 nM; in assay [3], 664 nM; in assay [4] it was 642 nM.

For the compound `CC(C)N1CCC(n2cc(C(=O)Nc3cc4cc(-c5cn(C)nn5)ccc4cn3)nn2)CC1` [Compound 35, 1-(1-Isopropylpiperidin-4-yl)-N-(6-(1-methyl-1H-1,2,3-triazol-4-yl)isoquinolin-3-yl)-1H-1,2,3-triazole-4-carboxamide], the EC50 on recombinant GSK3β kinase (setting [5]) was 295 nM; in assay [1] it was 111 nM; in the assay with IL-6, 2110 nM; in assay [2] (setting [6]) it was 10 nM; in assay [3], 306 nM; in assay [4], 635 nM.

Regarding `Cn1cc(-c2ccc3cnc(NC(=O)c4coc(C5CCNCC5)n4)cc3c2)nn1` [Compound 36, N-(6-(1-Methyl-1H-1,2,3-triazol-4-yl)isoquinolin-3-yl)-2-(piperidin-4-yl) oxazole-4-carboxamide], the concentration giving a half-maximal response (EC50) on recombinant GSK3β kinase (setting [5]) came to 458 nM; in assay [1], 114 nM; with IL-6, 2540 nM; in assay [2] (setting [6]) it was 19 nM; in assay [3] it was 399 nM; in assay [4], 596 nM.

For `CN1CCC(c2nc(C(=O)Nc3cc4cc(-c5cn(C)nn5)ccc4cn3)co2)CC1` [Compound 37, N-(6-(1-Methyl-1H-1,2,3-triazol-4-yl)isoquinolin-3-yl)-2-(1-methylpiperidin-4-yl)oxazole-4-carboxamide], the EC50 on recombinant GSK3β kinase (setting [5]) worked out at 342 nM; in assay [1], 105 nM; with IL-6, 2660 nM; in assay [2] (setting [6]), 24 nM; in assay [3], 179 nM; in assay [4] it was 248 nM.

In the case of `CC(C)N1CCC(c2nc(C(=O)Nc3cc4cc(-c5cn(C)nn5)ccc4cn3)co2)CC1` [Compound 38, 2-(1-Isopropylpiperidin-4-yl)-N-(6-(1-methyl-1H-1,2,3-triazol-4-yl)isoquinolin-3-yl)oxazole-4-carboxamide], the EC50 at recombinant GSK3β kinase (setting [5]) was 1350 nM; in assay [1] it was 555 nM; in the assay with IL-6 it was more than 10000 nM; in assay [2] (setting [6]), 180 nM; in assay [3], 1630 nM; in assay [4], more than 10000 nM. Besides, the inhibition at 10 µM with IL-6 is 5.3%; in assay [4], 3.9%.

As to `Cn1cc(C(=O)Nc2cc3cc(-c4cncn4C)ccc3cn2)cn1` [Compound 40, 1-Methyl-N-(6-(1-methyl-1H-imidazol-5-yl)isoquinolin-3-yl)-1H-pyrazole-4-carboxamide], the concentration for a half-maximal effect (EC50) is 1830 nM on recombinant GSK3β kinase (setting [5]); 109 nM in assay [1]; 751 nM with IL-6; 4 nM in assay [2] (setting [6]); 442 nM in assay [3]; more than 10000 nM in assay [4]. In addition, the inhibition at 10 µM in assay [4] worked out at 23.2%.

Turning to `CCn1cc(C(=O)Nc2cc3cc(-c4cncn4C)ccc3cn2)cn1` [Compound 41, 1-Ethyl-N-(6-(1-methyl-1H-imidazol-5-yl)isoquinolin-3-yl)-1H-pyrazole-4-carboxamide], the EC50 at recombinant GSK3β kinase (setting [5]) came out at 850 nM; in assay [1], 37 nM; with IL-6, 618 nM; in assay [2] (setting [6]) it was 2 nM; in assay [3] it was 102 nM; in assay [4], 122 nM.

Consider `CC(C)n1cc(C(=O)Nc2cc3cc(-c4cncn4C)ccc3cn2)cn1` [Compound 42, 1-Isopropyl-N-(6-(1-methyl-1H-imidazol-5-yl)isoquinolin-3-yl)-1H-pyrazole-4-carboxamide], for which the EC50 at recombinant GSK3β kinase (setting [5]) is 9990 nM; in assay [1] it was 602 nM; in the assay with IL-6, more than 10000 nM; in assay [2] (setting [6]), 23 nM; in assay [3], 999 nM; in assay [4] it was 2500 nM. In the assay on IL-6, the inhibition at 10 µM worked out at 37.1%.

In the case of `[2H]c1nc(NC(=O)c2cnn(C(C)C)c2)cc2cc(-c3cncn3C)ccc12` [Compound 43, 1-Isopropyl-N-(6-(1-methyl-1H-imidazol-5-yl)isoquinolin-3-yl-1-d)-1H-pyrazole-4-carboxamide], the EC50 at recombinant GSK3β kinase amounted to 3070 nM; in assay [1] it was 48 nM; in the assay on IL-6 it was 251 nM; in assay [2], 2 nM; in assay [3], 83 nM; in assay [4], 151 nM.

The EC50 is the concentration needed to bring the measured effect to its halfway point. The inhibition is the drop in the measured response relative to a control, in per cent.
